Test results as given in ChEMBL document CHEMBL1201862, “PubChem BioAssay data set” (2004).
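In this assay, cells in 96-well plates receive the compound at five concentrations for 48 hours. Endpoints are linearly interpolated between the surrounding concentrations. GI50 marks 50% less growth.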 Active and inactive are the calls of the source. No stated cut-off is given here; in the data, active = GI50 up to about 1.1 µM and inactive = higher. Square brackets hold non-standard residues; d marks the D form. Peptide text beside a SMILES is read from it. * marks the point of attachment. ξ: configuration not given here. NMeY = CN[C@@H](Cc1ccc(O)cc1)C(=O)O; Cbz = O=C(OCc1ccccc1)*; ξA = CC(N)C(=O)O

Legend:
Assay in all cases: growth of human tumour cells (NCI), 48 h
Hs-578T = system: Hs-578T
OVCAR-4 = system: OVCAR-4
M14 = system: M14
KM12 = system: KM12
SK-OV-3 = system: SK-OV-3
EKVX = system: EKVX
SK-MEL-2 = system: SK-MEL-2
MOLT-4 = system: MOLT-4
NCI/ADR-RES = system: NCI/ADR-RES
NCI-H460 = system: NCI-H460
SK-MEL-5 = system: SK-MEL-5
MDA-N = system: MDA-N
CCRF-CEM = system: CCRF-CEM
HCC 2998 = system: HCC 2998
T47D = system: T47D
SK-MEL-28 = system: SK-MEL-28
RXF 393 = system: RXF 393
U-251 = system: U-251
A498 = system: A498
UACC-62 = system: UACC-62

C=CC(C)(C)C(=C)C(=O)N(C)c1ccccc1I
GI50 (Hs-578T): 57.9 µM (inactive)
GI50 (OVCAR-4): 48.3 µM (inactive)
GI50 (M14): > 100 µM (inactive)
GI50 (KM12): > 100 µM (inactive)
GI50 (SK-OV-3): > 100 µM (inactive)
GI50 (EKVX): > 100 µM (inactive)
GI50 (SK-MEL-2): > 100 µM (inactive)
GI50 (MOLT-4): 83.2 µM (inactive)
GI50 (NCI/ADR-RES): > 100 µM (inactive)
GI50 (NCI-H460): > 100 µM (inactive)
GI50 (SK-MEL-5): 72.8 µM (inactive)
GI50 (MDA-N): > 100 µM (inactive)
GI50 (CCRF-CEM): > 100 µM (inactive)
GI50 (HCC 2998): > 100 µM (inactive)
GI50 (T47D): > 100 µM (inactive)
GI50 (SK-MEL-28): > 100 µM (inactive)
GI50 (RXF 393): > 100 µM (inactive)
GI50 (U-251): > 100 µM (inactive)
GI50 (A498): > 100 µM (inactive)
GI50 (UACC-62): > 100 µM (inactive)

CC(O)c1cc2c(s1)C(=O)c1sccc1C2=O (stereo not given)
GI50 (Hs-578T): 0.0638 µM (active)
GI50 (OVCAR-4): 0.168 µM (active)
GI50 (M14): 0.0185 µM (active)
GI50 (KM12): 0.234 µM (active)
GI50 (SK-OV-3): 1.49 µM (inactive)
GI50 (EKVX): 0.254 µM (active)
GI50 (SK-MEL-2): 0.0415 µM (active)
GI50 (MOLT-4): 0.268 µM (active)
GI50 (NCI/ADR-RES): 0.178 µM (active)
GI50 (NCI-H460): 0.127 µM (active)
GI50 (SK-MEL-5): 0.0164 µM (active)
GI50 (MDA-N): 0.0198 µM (active)
GI50 (CCRF-CEM): 0.334 µM (active)
GI50 (HCC 2998): 0.202 µM (active)
GI50 (T47D): 0.329 µM (active)
GI50 (SK-MEL-28): 0.047 µM (active)
GI50 (RXF 393): 0.172 µM (active)
GI50 (U-251): 0.125 µM (active)
GI50 (A498): 0.29 µM (active)
GI50 (UACC-62): 0.0519 µM (active)

C#CC[C@@H]1C(=O)N(Cc2ccc(OC)cc2)[C@@H](C(C)C)C(=O)N1Cc1ccc(OC)cc1
GI50 (Hs-578T): > 100 µM (inactive)
GI50 (OVCAR-4): 74 µM (inactive)
GI50 (M14): 36.5 µM (inactive)
GI50 (KM12): 35.8 µM (inactive)
GI50 (SK-OV-3): > 100 µM (inactive)
GI50 (EKVX): 28.4 µM (inactive)
GI50 (SK-MEL-2): 19.9 µM (inactive)
GI50 (MOLT-4): 15.1 µM (inactive)
GI50 (NCI/ADR-RES): 31.2 µM (inactive)
GI50 (NCI-H460): 30.7 µM (inactive)
GI50 (SK-MEL-5): 15.6 µM (inactive)
GI50 (MDA-N): 22.9 µM (inactive)
GI50 (CCRF-CEM): 0.458 µM (active)
GI50 (HCC 2998): 47.1 µM (inactive)
GI50 (T47D): 16.4 µM (inactive)
GI50 (SK-MEL-28): 84.7 µM (inactive)
GI50 (RXF 393): 2.79 µM (inactive)
GI50 (U-251): 39.7 µM (inactive)
GI50 (A498): 36 µM (inactive)
GI50 (UACC-62): 25.2 µM (inactive)

CCCCN1C(=O)CC2[C@@H]3CCc4cc(OC(C)=O)ccc4C3CC[C@]2(C)C1=O (stereo not given in full)
GI50 (Hs-578T): > 10 µM (inactive)
GI50 (OVCAR-4): > 10 µM (inactive)
GI50 (M14): > 10 µM (inactive)
GI50 (KM12): > 10 µM (inactive)
GI50 (SK-OV-3): > 10 µM (inactive)
GI50 (EKVX): > 10 µM (inactive)
GI50 (SK-MEL-2): > 10 µM (inactive)
GI50 (MOLT-4): > 10 µM (inactive)
GI50 (NCI/ADR-RES): > 10 µM (inactive)
GI50 (NCI-H460): > 10 µM (inactive)
GI50 (SK-MEL-5): > 10 µM (inactive)
GI50 (MDA-N): > 10 µM (inactive)
GI50 (CCRF-CEM): > 10 µM (inactive)
GI50 (HCC 2998): > 10 µM (inactive)
GI50 (T47D): > 10 µM (inactive)
GI50 (SK-MEL-28): > 10 µM (inactive)
GI50 (RXF 393): > 10 µM (inactive)
GI50 (U-251): > 10 µM (inactive)
GI50 (A498): > 10 µM (inactive)
GI50 (UACC-62): > 10 µM (inactive)

C=C(C(=O)OC1C(CO)OC(OCC2CC[C@@H]3C[C@]4(OC(=O)C3=C)C(C)=CC(=O)C24)C(O)C1O)[C@@H]1CCC(CO)C2C(=O)C=C(C)[C@@]2(O)C1 (stereo not given in full)
GI50 (Hs-578T): 4.09 µM (inactive)
GI50 (OVCAR-4): 4.01 µM (inactive)
GI50 (M14): 2.08 µM (inactive)
GI50 (KM12): 2.55 µM (inactive)
GI50 (SK-OV-3): 20.4 µM (inactive)
GI50 (EKVX): 2.42 µM (inactive)
GI50 (SK-MEL-2): 2.47 µM (inactive)
GI50 (MOLT-4): 0.693 µM (active)
GI50 (NCI/ADR-RES): 2.19 µM (inactive)
GI50 (NCI-H460): 3.3 µM (inactive)
GI50 (SK-MEL-5): 1.29 µM (inactive)
GI50 (MDA-N): 1.44 µM (inactive)
GI50 (CCRF-CEM): 0.269 µM (active)
GI50 (HCC 2998): 1.61 µM (inactive)
GI50 (T47D): 2.55 µM (inactive)
GI50 (SK-MEL-28): 3.34 µM (inactive)
GI50 (RXF 393): 0.757 µM (active)
GI50 (U-251): 4.68 µM (inactive)
GI50 (A498): 2.9 µM (inactive)
GI50 (UACC-62): 1.62 µM (inactive)

COc1ccc(OC)c(/N=C/c2cc(OC)c(OC)c(OC)c2)c1
GI50 (Hs-578T): > 100 µM (inactive)
GI50 (OVCAR-4): > 85.1 µM (inactive)
GI50 (M14): > 100 µM (inactive)
GI50 (KM12): > 80 µM (inactive)
GI50 (SK-OV-3): > 77.8 µM (inactive)
GI50 (EKVX): > 52.6 µM (inactive)
GI50 (SK-MEL-2): > 100 µM (inactive)
GI50 (MOLT-4): 68.9 µM (inactive)
GI50 (NCI/ADR-RES): > 100 µM (inactive)
GI50 (NCI-H460): > 100 µM (inactive)
GI50 (SK-MEL-5): > 100 µM (inactive)
GI50 (MDA-N): 40.1 µM (inactive)
GI50 (CCRF-CEM): 22.9 µM (inactive)
GI50 (HCC 2998): > 100 µM (inactive)
GI50 (T47D): > 100 µM (inactive)
GI50 (SK-MEL-28): > 89.1 µM (inactive)
GI50 (RXF 393): > 100 µM (inactive)
GI50 (U-251): > 100 µM (inactive)
GI50 (A498): > 100 µM (inactive)
GI50 (UACC-62): > 100 µM (inactive)

CN(C)CCCN1C(=S)N(CCCN(C)C)c2c3ccccc3nc3c([N+](=O)[O-])ccc1c23
GI50 (Hs-578T): 6.27 µM (inactive)
GI50 (OVCAR-4): 11.5 µM (inactive)
GI50 (M14): 6.27 µM (inactive)
GI50 (KM12): 3.3 µM (inactive)
GI50 (SK-OV-3): 15.5 µM (inactive)
GI50 (EKVX): 5.5 µM (inactive)
GI50 (SK-MEL-2): 12.5 µM (inactive)
GI50 (MOLT-4): 5.58 µM (inactive)
GI50 (NCI/ADR-RES): 6.95 µM (inactive)
GI50 (NCI-H460): 3.46 µM (inactive)
GI50 (SK-MEL-5): 4.55 µM (inactive)
GI50 (MDA-N): 7.46 µM (inactive)
GI50 (CCRF-CEM): 18.8 µM (inactive)
GI50 (HCC 2998): 4.21 µM (inactive)
GI50 (T47D): 15 µM (inactive)
GI50 (SK-MEL-28): 13.6 µM (inactive)
GI50 (RXF 393): 5.08 µM (inactive)
GI50 (U-251): 6.87 µM (inactive)
GI50 (A498): 7.71 µM (inactive)
GI50 (UACC-62): 9.95 µM (inactive)

COC(=O)CC1C2(C)C3=C(C)C(c4ccoc4)CC3OC2C2OC(=O)C3(C)C=CC(=O)C1(C)C23 (stereo not given)
GI50 (Hs-578T): 3.5 µM (inactive)
GI50 (OVCAR-4): 2.25 µM (inactive)
GI50 (M14): 1.32 µM (inactive)
GI50 (KM12): 1.71 µM (inactive)
GI50 (SK-OV-3): 4.11 µM (inactive)
GI50 (EKVX): 1.36 µM (inactive)
GI50 (SK-MEL-2): 1.64 µM (inactive)
GI50 (MOLT-4): 0.455 µM (active)
GI50 (NCI/ADR-RES): 2.04 µM (inactive)
GI50 (NCI-H460): 1.15 µM (inactive)
GI50 (SK-MEL-5): 1.6 µM (inactive)
GI50 (MDA-N): 0.385 µM (active)
GI50 (CCRF-CEM): 0.317 µM (active)
GI50 (HCC 2998): 1.41 µM (inactive)
GI50 (T47D): 1.38 µM (inactive)
GI50 (SK-MEL-28): 1.16 µM (inactive)
GI50 (RXF 393): 1.3 µM (inactive)
GI50 (U-251): 1.48 µM (inactive)
GI50 (A498): 1.94 µM (inactive)
GI50 (UACC-62): 1.46 µM (inactive)

C[C@@H]1CC[C@]2(C)C3(C)CC[C@]2(OC3=O)[C@@]12CC(c1ccoc1)OC2=O (stereo not given in full)
GI50 (Hs-578T): 54.2 µM (inactive)
GI50 (OVCAR-4): 20.7 µM (inactive)
GI50 (M14): 25.1 µM (inactive)
GI50 (KM12): > 100 µM (inactive)
GI50 (SK-OV-3): > 100 µM (inactive)
GI50 (EKVX): 72.3 µM (inactive)
GI50 (SK-MEL-2): 58.6 µM (inactive)
GI50 (MOLT-4): 31 µM (inactive)
GI50 (NCI/ADR-RES): 49.3 µM (inactive)
GI50 (NCI-H460): 86.5 µM (inactive)
GI50 (SK-MEL-5): 62.5 µM (inactive)
GI50 (MDA-N): 34.4 µM (inactive)
GI50 (CCRF-CEM): 22.8 µM (inactive)
GI50 (HCC 2998): > 100 µM (inactive)
GI50 (T47D): > 100 µM (inactive)
GI50 (SK-MEL-28): 26.7 µM (inactive)
GI50 (RXF 393): 24.8 µM (inactive)
GI50 (U-251): 44.5 µM (inactive)
GI50 (A498): > 100 µM (inactive)
GI50 (UACC-62): 61.4 µM (inactive)

COc1ccc(C[C@@H](C(=O)N[C@@H](C)C(N)=O)N(C)C(=O)[C@@H]2CCCN2C(=O)[C@H](CC(C)C)NC(=O)C(C)NC(=O)OCc2ccccc2)cc1 (stereo not given in full) (Cbz-[ξA]LP[NMeY](Me)A-NH2)
GI50 (Hs-578T): 4.94 µM (inactive)
GI50 (OVCAR-4): > 100 µM (inactive)
GI50 (M14): > 100 µM (inactive)
GI50 (KM12): > 100 µM (inactive)
GI50 (SK-OV-3): > 100 µM (inactive)
GI50 (EKVX): > 100 µM (inactive)
GI50 (SK-MEL-2): > 100 µM (inactive)
GI50 (MOLT-4): 35.5 µM (inactive)
GI50 (NCI/ADR-RES): > 100 µM (inactive)
GI50 (NCI-H460): > 100 µM (inactive)
GI50 (SK-MEL-5): 76.2 µM (inactive)
GI50 (MDA-N): > 100 µM (inactive)
GI50 (CCRF-CEM): > 100 µM (inactive)
GI50 (HCC 2998): > 100 µM (inactive)
GI50 (T47D): > 100 µM (inactive)
GI50 (SK-MEL-28): > 100 µM (inactive)
GI50 (RXF 393): > 100 µM (inactive)
GI50 (U-251): > 100 µM (inactive)
GI50 (A498): > 100 µM (inactive)
GI50 (UACC-62): 73.1 µM (inactive)
